The results in this text go back to patent US9718813B2, “Imidazolin-5-one derivative useful as FASN inhibitors for the treatment of cancer” (Janssen Pharmaceutica, NV, priority 2013, dated 2017).

For assay [1], the target named is hFASN enzyme (full length) (Homo sapiens (Human), UniProt P49327). In words: Fatty Acid Synthase (FASN) Inhibition Scintillation Proximity Assay. The conditions noted are these: 3H-acetyl-CoA and malonyl-CoA substrates, SPA, mean if tested more than once. Format: biochemical. Put shortly:
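Full-length human FASN (300 ng, in-house purified) in 100 mM KH2PO4 pH 7.5, 1 mM DTT converts 3H-acetyl-CoA plus malonyl-CoA to hydrophobic 3H-palmitate, captured by streptavidin imaging beads and read on LEADseeker at 610 nm after ≥24 h. Compounds tested 0.01–30 μM; data normalized to plate controls and fitted to 4-parameter logistic curves.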

Assay [2] concerns the target FASN Keto-reductase Domain (hFASN enzyme, full length) (Homo sapiens (Human), UniProt P49327). As to the kind of experiment: Fatty Acid Synthase Keto-reductase Domain (FASN KR) Inhibition. In kind it is biochemical. The following applies: NADPH oxidation at 340 nm, ethyl acetoacetate substrate. Put shortly:
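Absorbance was read before (T1) and after 20 min incubation at room temperature (T2), with the decrease T1−T2 as signal. Data were normalized to plate high and low controls as % Controlmin; IC50 came from a 4-parameter logistic fit of Controlmin versus compound concentration.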

In assay [3] the test system is PC-3M-Luc-C6 prostate cells. In words: In Vitro PC-3M-Luc-C6 Prostate Cell Proliferation Assay in Lipid Reduced Medium. Format: cell-based. The conditions noted are these: 96 h. On the procedure:
PC-3M-Luc-C6 prostate cells were obtained from Xenogen Corporation. […] The cells were passaged twice a week.
The next day 10 μl test compound/DMSO diluted in medium was added (3E-5M, 1E-5M, 3E-6M, 1E-6M, 3E-7M, 1E-7M, 3E-8M, 1E-8M final concentration). Compounds were tested in duplicate. After 96 h incubation at 37° C., 5% CO2 25 μl ATP-glow mix was added. The plate was incubated for 30 min at 37° C. and luminescence was measured with the Envision.
(§1) pIC50 values were calculated as follows. Raw data generated by the instruments were normalized to % Controlmin values, which were calculated as: % Controlmin=100*(x−mLC)/(mHC−mLC),
(§2) where mLC and mHC are the means of the low control wells and high control wells on the plate, after manual exclusion of outliers. The relation between the % Controlmin values and concentration was fitted to a 4-parameter logistic curve using a non-linear least squares regression method to determine the pIC50 value. Outlying data points were excluded manually to get a correct fit. […] The IC50 parameter was always determined by non-linear regression, but one or more of the other parameters may have been held fixed on a relevant input value, such as 0 for the bottom values.

Assay [4] relates to LNCaP_Vancouver prostate cells. As to the kind of experiment: In Vitro LNCaP Vancouver Prostate Cell Proliferation Assay in Lipid Reduced Medium. Format: cell-based. The conditions noted are these: 96 h, 10% lipid reduced serum, ATP-glow. On the procedure:
LNCaP_Vancouver prostate cells were obtained from the Vancouver Prostate Cancer Centre.
Compounds were tested in duplicate. After 96 h incubation at 37° C., 5% CO2 25 μl ATP-glow mix was added. The plate was incubated for 30 min at 37° C. and luminescence was measured with the Envision.
as §1, §2

Assay [5] concerns A2780 ovarian cells. In words: A2780 Ovarian Cell Proliferation Assay in Lipid Reduced Medium, without Palmitate. In kind it is cell-based. The conditions noted are these: 10% lipid-reduced serum, no palmitate, 96 h, MTT. The procedure:
(§3) The biological assays described below correspond to comparative assays for ovarian cell proliferation.
2500 cells were seeded in a 96-well clear well plate in 200 μL RPM11640 with 10% Fetal Calf Serum (Hyclone), and incubated at 37° C., 5% CO2. Blanks were wells without cells. The next day the culture medium was aspirated and replaced by 160 μL culture medium with 10% Lipid-Reduced Serum (LRS, Hyclone). 20 μL test compound (at concentrations of 30 μM, 10 μM, 3 μM, 1 μM, 0.30 μM, 0.10 μM, 0.03 μM and 0.01 μM)/DMSO dilution followed by 20 μL ethanol-BSA solution were added to a final concentrations of 0.2% DMSO, 0.2% fatty-acid-free BSA, 0.25% ethanol. After 96 h incubation an MTT assay was performed.
Raw data generated by the instrument were normalized to % Controlmin values, which were calculated as: % Controlmin=100*(x−mLC)/(mHC−mLC)
where mLC and mHC were the means of the low control wells and high control wells on the plate, after manual exclusion of outliers. A plot of Controlmin versus test compound concentration was fitted to a 4-parameter logistic curve using a non-linear least squares regression method.

For assay [6], the system named is A2780 ovarian cells. In words: A2780 Ovarian Cell Proliferation Assay in Lipid Reduced Medium, with Palmitate. Format: cell-based. The conditions noted are these: 10% lipid-reduced serum, 25 μM palmitate, 96 h, MTT. On the procedure:
as §3
2500 cells were seeded in a 96-well clear well plate in 200 μL RPM11640 with 10% Fetal Calf Serum (Hyclone), and incubated at 37° C., 5% CO2. Blanks were wells without cells. The next day the culture medium was aspirated and replaced by 160 μL culture medium with 10% Lipid-Reduced Serum (LRS, Hyclone). […] After 96 h incubation, an MTT assay was performed.

hFASN enzyme (full length), sequence (P49327 whole entry): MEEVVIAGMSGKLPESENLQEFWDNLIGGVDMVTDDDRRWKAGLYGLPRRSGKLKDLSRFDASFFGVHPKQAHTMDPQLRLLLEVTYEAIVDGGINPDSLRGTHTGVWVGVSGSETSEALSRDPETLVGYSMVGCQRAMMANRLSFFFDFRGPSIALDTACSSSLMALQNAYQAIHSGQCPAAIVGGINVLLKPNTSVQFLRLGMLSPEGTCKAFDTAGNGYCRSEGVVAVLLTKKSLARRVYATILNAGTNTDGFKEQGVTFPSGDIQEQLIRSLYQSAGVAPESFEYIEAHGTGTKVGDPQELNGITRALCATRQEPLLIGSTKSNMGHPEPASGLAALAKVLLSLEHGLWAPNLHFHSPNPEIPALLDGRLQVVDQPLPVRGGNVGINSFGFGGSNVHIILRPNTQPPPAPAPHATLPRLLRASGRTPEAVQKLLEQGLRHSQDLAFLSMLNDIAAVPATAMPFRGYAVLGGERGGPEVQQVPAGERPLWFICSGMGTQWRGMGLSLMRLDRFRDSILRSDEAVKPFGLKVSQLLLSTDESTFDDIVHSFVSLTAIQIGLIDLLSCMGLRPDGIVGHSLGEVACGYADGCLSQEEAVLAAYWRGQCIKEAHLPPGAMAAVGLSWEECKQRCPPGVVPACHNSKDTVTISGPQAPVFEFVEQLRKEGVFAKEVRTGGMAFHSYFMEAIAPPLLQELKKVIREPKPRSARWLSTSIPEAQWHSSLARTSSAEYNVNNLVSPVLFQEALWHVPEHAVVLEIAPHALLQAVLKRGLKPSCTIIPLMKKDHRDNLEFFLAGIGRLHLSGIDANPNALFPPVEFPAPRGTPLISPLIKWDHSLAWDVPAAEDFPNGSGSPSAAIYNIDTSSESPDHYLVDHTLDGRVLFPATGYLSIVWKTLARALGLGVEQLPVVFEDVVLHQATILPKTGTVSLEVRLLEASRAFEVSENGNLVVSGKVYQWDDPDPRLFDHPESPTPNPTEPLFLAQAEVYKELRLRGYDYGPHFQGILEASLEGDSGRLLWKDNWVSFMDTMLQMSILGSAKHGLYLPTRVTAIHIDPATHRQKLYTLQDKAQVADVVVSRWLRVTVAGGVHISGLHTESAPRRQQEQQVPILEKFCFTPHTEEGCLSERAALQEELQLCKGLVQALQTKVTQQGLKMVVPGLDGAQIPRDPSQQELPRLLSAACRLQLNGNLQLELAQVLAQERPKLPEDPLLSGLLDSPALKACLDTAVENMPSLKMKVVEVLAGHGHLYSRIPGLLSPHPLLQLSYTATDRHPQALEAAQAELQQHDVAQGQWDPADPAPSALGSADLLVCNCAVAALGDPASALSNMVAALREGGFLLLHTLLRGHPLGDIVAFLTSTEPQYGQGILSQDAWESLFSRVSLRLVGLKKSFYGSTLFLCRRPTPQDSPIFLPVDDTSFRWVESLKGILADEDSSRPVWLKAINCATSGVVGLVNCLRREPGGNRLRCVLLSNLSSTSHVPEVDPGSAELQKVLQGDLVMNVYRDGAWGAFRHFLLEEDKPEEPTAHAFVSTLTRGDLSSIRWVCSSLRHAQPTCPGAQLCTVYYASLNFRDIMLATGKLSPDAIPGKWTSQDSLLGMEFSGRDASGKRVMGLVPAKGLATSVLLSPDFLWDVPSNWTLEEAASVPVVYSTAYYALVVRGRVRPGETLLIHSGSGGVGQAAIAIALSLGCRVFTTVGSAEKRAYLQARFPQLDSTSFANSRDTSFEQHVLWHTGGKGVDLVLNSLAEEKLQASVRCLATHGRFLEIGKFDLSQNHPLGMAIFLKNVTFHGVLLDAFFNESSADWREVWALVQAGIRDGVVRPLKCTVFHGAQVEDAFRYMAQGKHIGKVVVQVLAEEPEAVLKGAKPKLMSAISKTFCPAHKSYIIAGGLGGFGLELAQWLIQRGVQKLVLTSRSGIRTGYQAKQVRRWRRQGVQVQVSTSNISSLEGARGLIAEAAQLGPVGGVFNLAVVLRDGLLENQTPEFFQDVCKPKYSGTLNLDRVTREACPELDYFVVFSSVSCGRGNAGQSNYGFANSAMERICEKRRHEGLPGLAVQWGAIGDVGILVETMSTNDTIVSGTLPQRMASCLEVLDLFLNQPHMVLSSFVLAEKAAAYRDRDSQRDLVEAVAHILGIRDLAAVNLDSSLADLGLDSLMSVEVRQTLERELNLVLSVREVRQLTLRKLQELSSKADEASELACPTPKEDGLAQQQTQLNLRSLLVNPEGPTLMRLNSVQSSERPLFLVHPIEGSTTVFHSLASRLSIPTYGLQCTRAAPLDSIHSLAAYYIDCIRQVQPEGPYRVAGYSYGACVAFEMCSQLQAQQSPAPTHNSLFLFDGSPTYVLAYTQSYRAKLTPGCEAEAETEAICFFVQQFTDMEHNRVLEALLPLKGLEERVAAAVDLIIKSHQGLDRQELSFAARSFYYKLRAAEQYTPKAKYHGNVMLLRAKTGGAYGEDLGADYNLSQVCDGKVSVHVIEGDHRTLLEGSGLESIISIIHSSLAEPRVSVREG
FASN Keto-reductase Domain (hFASN enzyme, full length), sequence (P49327 whole entry, the tested form may be a part): as the sequence (P49327 whole entry) above

Consider `CC1(C)N=C(c2ccc(-c3ccc4cncnc4c3)cc2F)N(CC2CN(C(=O)C3CC3)C2)C1=O` [Compound 43, 1-((1-(cyclopropanecarbonyl)azetidin-3-yl)methyl)-2-(2-fluoro-4-(quinazolin-7-yl)phenyl)-4,4-dimethyl-1H-imidazol-5(4H)-one], for which the “Human FASN pIC50” value in assay [1] was 6.11. For the same molecule, in assay [2], the “FASN Keto-reductase Domain pIC50” value came out at 5.93. Also, the IC50 is 871 nM in assay [3] (Prostate cell, read-out: pIC50 PC-3M-Luc-C6 prostate cell, 10% lipid reduced serum, 96 h, ATP-glow (converted)) and 2340 nM in assay [4] (Prostate cell, read-out: pIC50 LNCaP_Vancouver prostate cell (converted)).
With `Cn1ncc2cc(-c3ccc(C4=NC(C)(C)C(=O)N4CC4CN(C(=O)C5CC5)C4)c(F)c3)ccc21` [Compound 69, 1-((1-(cyclopropanecarbonyl)azetidin-3-yl)methyl)-2-(2-fluoro-4-(1-methyl-1H-indazol-5-yl)phenyl)-4,4-dimethyl-1H-imidazol-5(4H)-one], the “pIC50 PC-3M-Luc-C6 prostate cell” value in assay [3] (10% lipid reduced serum, ATP-glow) was determined as 7.04. Further, the “pIC50 Without Palmitate” value in assay [5] is 7.19. Also, the “pIC50 With Palmitate” value in assay [6] is under 5. In assay [4], the “pIC50 LNCaP_Vancouver prostate cell” value stood at 6.87.
